The target in one assay is ABL1(T315I) (Homo sapiens, UniProt P00519, T315I). To be noted: 0.1 µM, binder.
Another assay addresses ALK (Homo sapiens, UniProt Q9UM73). To be noted: 0.1 µM; binder.
The next assay has as its target CAMK1 (Homo sapiens, UniProt Q14012). To be noted: 0.1 µM; binder.
A further assay has as its target CDKL1 (Homo sapiens, UniProt Q00532). To be noted: 0.1 µM; binder.
A further assay deals with FGFR2 (Homo sapiens, UniProt P21802). To be noted: 0.1 µM; binder.
Another assay deals with T1, FLT3 (Homo sapiens, UniProt P36888).
T1 sequence (P36888 1-993): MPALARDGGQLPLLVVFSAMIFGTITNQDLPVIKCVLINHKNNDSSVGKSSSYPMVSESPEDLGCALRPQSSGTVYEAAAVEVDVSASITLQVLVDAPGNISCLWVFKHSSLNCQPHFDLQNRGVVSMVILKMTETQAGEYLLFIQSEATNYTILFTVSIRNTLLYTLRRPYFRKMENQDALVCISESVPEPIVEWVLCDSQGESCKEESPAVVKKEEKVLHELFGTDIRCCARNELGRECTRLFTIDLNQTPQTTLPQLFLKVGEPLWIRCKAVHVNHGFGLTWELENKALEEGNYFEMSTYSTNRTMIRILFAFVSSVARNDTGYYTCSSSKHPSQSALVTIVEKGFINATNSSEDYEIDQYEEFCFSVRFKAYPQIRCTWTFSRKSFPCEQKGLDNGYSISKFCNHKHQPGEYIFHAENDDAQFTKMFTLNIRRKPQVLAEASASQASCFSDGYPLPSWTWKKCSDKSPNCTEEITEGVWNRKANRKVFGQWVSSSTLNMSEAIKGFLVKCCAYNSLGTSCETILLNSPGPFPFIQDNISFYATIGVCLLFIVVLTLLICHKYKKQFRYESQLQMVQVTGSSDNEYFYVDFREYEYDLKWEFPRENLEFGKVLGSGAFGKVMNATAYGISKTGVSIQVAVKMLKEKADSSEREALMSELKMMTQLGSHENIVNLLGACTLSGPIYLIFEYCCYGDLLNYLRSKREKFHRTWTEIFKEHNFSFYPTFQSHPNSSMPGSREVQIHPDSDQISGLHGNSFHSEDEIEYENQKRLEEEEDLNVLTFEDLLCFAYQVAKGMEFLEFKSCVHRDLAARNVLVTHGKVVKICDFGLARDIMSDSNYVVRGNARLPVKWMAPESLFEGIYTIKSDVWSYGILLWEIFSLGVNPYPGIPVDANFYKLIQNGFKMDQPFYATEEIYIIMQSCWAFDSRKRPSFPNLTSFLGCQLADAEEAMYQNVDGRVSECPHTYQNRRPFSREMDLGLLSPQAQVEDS
To be noted: 0.1 µM, binder.

The target of a further assay is FYN (Homo sapiens, UniProt P06241). To be noted: 0.1 µM; binder.
A further assay concerns the target JNK2 (Homo sapiens, UniProt P45984). To be noted: 0.1 µM; binder.
A further assay concerns the target MAP4K3 (Homo sapiens, UniProt Q8IVH8). To be noted: 0.1 µM; binder.
Another assay addresses MET(M1250T) (Homo sapiens, UniProt P08581, M1250T). To be noted: 0.1 µM; binder.
Another assay concerns the target MLK3 (Homo sapiens, UniProt Q16584). To be noted: 0.1 µM; binder.
Another assay deals with NDR1 (Homo sapiens, UniProt Q15208). To be noted: 0.1 µM; binder.
Another assay addresses PIK3C2G (Homo sapiens, UniProt O75747). To be noted: 0.1 µM; binder.
Another assay has as its target PIK3CB (Homo sapiens, UniProt P42338). To be noted: 0.1 µM; binder.
The target in a further assay is PIK3CG (Homo sapiens, UniProt P48736). To be noted: 0.1 µM; binder.
The target of a further assay is PKAC-alpha (Homo sapiens, UniProt P17612). To be noted: 0.1 µM; binder.
Another assay deals with PKN2 (Homo sapiens, UniProt Q16513). To be noted: 0.1 µM; binder.
In another assay the target is SRC (Homo sapiens, UniProt P12931). To be noted: 0.1 µM; binder.
In the next assay the target is STK35 (Homo sapiens, UniProt Q8TDR2). To be noted: 0.1 µM; binder.
The target in the next assay is TEC (Homo sapiens, UniProt P42680). To be noted: 0.1 µM; binder.
The target of the next assay is TLK2 (Homo sapiens, UniProt Q86UE8). To be noted: 0.1 µM; binder.
A further assay concerns the target p38-beta (Homo sapiens, UniProt Q15759). To be noted: 0.1 µM; binder.

Read-outs that look alike come from different tables or passages of the source.

Sequence of FYN (P06241 whole entry): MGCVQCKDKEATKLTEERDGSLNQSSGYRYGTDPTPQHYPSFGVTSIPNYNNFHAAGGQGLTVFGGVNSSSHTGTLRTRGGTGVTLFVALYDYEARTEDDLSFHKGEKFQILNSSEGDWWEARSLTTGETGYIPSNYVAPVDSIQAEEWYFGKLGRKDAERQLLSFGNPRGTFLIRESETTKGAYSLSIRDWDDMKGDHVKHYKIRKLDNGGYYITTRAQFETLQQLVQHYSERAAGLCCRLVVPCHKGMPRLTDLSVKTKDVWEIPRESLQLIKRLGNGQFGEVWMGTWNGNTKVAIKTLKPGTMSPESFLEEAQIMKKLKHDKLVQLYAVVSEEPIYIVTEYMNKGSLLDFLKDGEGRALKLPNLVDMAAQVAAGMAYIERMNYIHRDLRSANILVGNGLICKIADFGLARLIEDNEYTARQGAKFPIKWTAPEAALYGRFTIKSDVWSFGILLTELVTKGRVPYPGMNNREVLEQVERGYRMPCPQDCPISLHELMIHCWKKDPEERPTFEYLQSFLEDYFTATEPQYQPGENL
Sequence of CAMK1 (Q14012 whole entry): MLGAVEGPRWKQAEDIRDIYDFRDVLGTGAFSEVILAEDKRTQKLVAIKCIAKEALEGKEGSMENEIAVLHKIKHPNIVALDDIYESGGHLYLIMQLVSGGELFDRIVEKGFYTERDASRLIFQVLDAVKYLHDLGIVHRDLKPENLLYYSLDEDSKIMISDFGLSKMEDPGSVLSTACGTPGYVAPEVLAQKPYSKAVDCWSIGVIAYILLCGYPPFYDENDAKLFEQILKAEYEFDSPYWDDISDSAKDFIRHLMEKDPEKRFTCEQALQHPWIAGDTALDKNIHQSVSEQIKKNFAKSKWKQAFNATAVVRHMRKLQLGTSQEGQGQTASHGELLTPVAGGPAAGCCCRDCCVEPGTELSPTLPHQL
Sequence of JNK2 (P45984 whole entry): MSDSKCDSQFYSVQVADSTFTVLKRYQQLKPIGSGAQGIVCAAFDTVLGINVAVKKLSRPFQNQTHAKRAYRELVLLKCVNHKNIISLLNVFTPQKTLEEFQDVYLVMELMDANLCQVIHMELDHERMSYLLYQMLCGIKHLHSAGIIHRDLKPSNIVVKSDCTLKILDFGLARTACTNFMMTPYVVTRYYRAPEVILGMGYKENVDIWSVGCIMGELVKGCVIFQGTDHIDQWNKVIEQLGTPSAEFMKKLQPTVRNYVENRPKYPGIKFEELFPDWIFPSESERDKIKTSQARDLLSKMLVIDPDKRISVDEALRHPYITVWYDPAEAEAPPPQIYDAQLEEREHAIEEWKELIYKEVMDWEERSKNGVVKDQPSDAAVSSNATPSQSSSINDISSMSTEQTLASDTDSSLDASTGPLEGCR
Sequence of PIK3CB (P42338 whole entry): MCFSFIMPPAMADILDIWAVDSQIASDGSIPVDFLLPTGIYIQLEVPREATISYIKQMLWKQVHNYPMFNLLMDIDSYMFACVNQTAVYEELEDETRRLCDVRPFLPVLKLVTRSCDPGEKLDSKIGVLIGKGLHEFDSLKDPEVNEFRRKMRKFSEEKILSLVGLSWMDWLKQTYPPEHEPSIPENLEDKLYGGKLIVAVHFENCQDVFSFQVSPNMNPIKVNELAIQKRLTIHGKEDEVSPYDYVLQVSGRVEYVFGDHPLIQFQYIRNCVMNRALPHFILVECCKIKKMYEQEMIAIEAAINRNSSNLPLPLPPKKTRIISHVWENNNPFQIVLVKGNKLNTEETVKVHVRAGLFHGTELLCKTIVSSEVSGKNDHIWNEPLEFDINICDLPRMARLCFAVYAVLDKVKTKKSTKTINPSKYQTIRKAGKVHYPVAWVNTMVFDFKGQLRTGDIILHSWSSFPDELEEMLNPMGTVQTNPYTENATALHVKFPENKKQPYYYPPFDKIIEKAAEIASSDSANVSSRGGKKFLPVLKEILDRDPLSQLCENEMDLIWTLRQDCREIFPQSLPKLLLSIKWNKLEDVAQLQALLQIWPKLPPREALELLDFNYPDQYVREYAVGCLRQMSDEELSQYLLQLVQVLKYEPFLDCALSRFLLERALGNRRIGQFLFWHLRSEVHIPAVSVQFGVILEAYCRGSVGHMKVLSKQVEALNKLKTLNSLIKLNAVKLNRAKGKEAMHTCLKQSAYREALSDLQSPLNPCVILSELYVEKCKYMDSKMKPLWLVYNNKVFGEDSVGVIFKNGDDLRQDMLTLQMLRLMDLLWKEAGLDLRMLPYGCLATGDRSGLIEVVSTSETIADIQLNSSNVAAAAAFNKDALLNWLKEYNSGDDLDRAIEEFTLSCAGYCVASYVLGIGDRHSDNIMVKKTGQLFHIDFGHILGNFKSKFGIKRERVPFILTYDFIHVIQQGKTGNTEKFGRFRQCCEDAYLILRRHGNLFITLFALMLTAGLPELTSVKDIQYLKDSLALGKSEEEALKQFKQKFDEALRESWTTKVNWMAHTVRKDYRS
Sequence of TLK2 (Q86UE8 whole entry): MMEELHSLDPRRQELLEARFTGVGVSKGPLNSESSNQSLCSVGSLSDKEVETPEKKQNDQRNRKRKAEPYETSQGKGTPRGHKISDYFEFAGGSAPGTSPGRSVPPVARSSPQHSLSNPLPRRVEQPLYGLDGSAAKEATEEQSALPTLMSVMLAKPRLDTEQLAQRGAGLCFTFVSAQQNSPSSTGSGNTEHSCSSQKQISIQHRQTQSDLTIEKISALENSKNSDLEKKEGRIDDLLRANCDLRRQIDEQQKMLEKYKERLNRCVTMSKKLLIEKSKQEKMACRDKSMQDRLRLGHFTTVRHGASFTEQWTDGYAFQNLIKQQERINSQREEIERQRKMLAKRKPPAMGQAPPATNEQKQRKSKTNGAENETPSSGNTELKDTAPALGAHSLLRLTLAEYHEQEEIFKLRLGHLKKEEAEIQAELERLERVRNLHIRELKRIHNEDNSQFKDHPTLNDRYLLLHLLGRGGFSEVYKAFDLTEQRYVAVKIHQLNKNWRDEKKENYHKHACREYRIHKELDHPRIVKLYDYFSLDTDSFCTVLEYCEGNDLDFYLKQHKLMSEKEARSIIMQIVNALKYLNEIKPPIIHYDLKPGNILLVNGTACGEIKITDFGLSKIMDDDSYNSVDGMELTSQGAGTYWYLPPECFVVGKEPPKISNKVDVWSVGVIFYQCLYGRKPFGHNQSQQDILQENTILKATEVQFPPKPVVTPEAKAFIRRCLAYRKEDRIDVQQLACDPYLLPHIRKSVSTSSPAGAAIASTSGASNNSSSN
Sequence of CDKL1 (Q00532 whole entry): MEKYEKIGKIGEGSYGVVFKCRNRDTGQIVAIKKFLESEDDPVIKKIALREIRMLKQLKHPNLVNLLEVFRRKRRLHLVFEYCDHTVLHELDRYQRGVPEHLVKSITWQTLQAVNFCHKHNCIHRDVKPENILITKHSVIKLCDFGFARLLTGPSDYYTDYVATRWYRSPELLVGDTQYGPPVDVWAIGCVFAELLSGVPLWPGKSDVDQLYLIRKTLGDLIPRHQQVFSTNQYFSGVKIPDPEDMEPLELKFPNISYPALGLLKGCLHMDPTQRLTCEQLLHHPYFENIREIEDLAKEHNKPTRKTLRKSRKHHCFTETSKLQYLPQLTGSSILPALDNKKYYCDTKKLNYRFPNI
Sequence of PIK3CG (P48736 whole entry): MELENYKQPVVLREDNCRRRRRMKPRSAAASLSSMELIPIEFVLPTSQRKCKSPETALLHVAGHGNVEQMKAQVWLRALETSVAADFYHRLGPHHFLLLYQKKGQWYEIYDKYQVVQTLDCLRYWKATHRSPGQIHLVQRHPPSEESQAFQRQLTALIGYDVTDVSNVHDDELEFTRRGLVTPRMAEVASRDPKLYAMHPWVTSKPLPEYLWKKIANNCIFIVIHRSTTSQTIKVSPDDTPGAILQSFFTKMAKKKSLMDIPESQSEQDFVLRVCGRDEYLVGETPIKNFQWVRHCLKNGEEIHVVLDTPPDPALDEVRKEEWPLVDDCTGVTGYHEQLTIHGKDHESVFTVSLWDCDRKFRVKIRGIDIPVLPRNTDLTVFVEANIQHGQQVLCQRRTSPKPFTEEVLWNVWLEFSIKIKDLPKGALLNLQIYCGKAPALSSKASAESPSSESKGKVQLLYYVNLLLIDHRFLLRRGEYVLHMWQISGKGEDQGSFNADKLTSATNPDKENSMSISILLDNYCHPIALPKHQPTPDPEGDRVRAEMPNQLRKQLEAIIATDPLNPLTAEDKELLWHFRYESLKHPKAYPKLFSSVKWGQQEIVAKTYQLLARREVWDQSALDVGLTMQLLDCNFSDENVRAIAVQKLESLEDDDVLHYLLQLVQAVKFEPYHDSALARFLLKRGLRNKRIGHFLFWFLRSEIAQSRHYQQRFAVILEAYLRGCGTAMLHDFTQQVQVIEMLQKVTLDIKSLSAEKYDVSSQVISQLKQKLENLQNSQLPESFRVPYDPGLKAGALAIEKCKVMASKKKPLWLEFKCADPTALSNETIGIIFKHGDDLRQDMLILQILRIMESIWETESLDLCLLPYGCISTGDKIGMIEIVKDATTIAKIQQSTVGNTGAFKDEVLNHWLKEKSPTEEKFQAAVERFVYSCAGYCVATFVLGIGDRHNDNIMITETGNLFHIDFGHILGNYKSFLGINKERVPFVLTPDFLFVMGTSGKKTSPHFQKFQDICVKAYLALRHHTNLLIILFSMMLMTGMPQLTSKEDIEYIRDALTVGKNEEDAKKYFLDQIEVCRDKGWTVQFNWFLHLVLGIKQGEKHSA
Sequence of p38-beta (Q15759 whole entry): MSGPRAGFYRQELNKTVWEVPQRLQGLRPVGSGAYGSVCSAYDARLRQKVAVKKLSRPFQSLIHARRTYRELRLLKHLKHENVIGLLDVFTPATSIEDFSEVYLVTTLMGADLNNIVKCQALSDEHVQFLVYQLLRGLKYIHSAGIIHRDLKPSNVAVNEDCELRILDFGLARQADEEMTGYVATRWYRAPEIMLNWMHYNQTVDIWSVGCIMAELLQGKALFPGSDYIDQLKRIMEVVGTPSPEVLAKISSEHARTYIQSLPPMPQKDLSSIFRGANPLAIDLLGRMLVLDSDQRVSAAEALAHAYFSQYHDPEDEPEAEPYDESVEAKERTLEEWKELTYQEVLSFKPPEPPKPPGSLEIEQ

For `CNc1ncc2cc(-c3ccc(-c4cccc(C)n4)cc3Cl)c(=O)n(C[C@H]3OC[C@H](N)CO3)c2n1` [compound 6, G-5555], the “Percent Control” value on ABL1(T315I) (nonphosphorylated) is 90%; on ABL1(T315I) (phosphorylated) it was 100%; at ALK, 89%; on CAMK1, 100%; at CDKL1, 100%; on FGFR2 it was 100%. Further, the “Percent Control” value came to 100% at FLT3; 94% at FLT3 (autoinhibited); 100% at FYN; 100% on JNK2; 85% on MAP4K3; 76% at MET(M1250T). The “Percent Control” value at MLK3 worked out at 100%; at NDR1 it was 97%; at PIK3C2G, 95%; at PIK3CB, 100%; on PIK3CG, 87%; at PKAC-alpha, 100%. In addition, the “Percent Control” value on PKN2 came out at 100%; on SRC it was 100%; at STK35 it was 100%; at TEC, 100%; on TLK2 it was 100%; on p38-beta, 97%.

Source of the values: doi:10.1101/2021.04.08.439011v1 (biorxiv, 2021).
